Experimental findings from ChEMBL document CHEMBL1201862, “PubChem BioAssay data set” (2004) are described below.

Test [1] concerns the target T1, Ubiquitin-conjugating enzyme E2 N (Homo sapiens, UniProt P61088).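 Note: Dose-response confirmation in a TR-FRET assay detecting UBC13-driven polyubiquitin chain formation, inhibition measured.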
T1 sequence (P61088 whole entry): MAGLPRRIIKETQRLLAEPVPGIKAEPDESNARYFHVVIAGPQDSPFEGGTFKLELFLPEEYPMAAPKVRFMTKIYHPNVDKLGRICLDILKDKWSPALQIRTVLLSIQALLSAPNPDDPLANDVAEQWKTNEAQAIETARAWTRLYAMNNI
The format is functional.

The target in test [2] is T2, Apoptotic protease-activating factor 1 (Homo sapiens, UniProt O14727).
T2 sequence (O14727 whole entry): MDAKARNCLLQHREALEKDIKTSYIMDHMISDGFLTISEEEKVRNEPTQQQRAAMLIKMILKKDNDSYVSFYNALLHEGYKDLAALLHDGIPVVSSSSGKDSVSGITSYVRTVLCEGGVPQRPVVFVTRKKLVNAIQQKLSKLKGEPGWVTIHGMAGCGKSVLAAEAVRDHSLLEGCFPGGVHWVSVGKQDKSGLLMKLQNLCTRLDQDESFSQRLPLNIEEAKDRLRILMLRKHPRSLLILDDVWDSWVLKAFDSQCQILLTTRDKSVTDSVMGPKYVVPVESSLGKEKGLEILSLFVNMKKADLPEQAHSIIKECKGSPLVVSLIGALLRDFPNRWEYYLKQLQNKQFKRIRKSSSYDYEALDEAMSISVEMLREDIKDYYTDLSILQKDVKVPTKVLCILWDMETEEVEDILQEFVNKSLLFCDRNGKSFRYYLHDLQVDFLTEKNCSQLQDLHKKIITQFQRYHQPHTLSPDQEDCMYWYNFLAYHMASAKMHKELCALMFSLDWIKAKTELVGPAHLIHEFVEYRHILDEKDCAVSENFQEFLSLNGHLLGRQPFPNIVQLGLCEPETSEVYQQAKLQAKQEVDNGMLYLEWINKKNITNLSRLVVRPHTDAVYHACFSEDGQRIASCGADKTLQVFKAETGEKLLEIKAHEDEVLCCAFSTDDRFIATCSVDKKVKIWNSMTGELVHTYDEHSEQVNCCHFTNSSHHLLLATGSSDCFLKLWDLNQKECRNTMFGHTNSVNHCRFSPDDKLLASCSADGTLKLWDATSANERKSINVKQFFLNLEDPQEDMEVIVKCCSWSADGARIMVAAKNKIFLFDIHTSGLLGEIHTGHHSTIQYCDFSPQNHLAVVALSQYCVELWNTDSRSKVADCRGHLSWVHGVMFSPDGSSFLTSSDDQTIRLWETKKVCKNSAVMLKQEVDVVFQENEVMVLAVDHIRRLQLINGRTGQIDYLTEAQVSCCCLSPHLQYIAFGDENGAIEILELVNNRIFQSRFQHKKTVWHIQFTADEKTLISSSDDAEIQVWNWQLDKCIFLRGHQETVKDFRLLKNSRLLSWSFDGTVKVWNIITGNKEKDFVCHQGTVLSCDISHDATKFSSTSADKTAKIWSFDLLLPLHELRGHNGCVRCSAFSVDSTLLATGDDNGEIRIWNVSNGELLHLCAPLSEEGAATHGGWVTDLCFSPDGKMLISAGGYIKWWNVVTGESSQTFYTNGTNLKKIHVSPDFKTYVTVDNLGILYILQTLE
The format is functional.

Test [3] deals with T3, Histone-lysine N-methyltransferase NSD2 (Homo sapiens, UniProt O96028).
T3 sequence (O96028 whole entry): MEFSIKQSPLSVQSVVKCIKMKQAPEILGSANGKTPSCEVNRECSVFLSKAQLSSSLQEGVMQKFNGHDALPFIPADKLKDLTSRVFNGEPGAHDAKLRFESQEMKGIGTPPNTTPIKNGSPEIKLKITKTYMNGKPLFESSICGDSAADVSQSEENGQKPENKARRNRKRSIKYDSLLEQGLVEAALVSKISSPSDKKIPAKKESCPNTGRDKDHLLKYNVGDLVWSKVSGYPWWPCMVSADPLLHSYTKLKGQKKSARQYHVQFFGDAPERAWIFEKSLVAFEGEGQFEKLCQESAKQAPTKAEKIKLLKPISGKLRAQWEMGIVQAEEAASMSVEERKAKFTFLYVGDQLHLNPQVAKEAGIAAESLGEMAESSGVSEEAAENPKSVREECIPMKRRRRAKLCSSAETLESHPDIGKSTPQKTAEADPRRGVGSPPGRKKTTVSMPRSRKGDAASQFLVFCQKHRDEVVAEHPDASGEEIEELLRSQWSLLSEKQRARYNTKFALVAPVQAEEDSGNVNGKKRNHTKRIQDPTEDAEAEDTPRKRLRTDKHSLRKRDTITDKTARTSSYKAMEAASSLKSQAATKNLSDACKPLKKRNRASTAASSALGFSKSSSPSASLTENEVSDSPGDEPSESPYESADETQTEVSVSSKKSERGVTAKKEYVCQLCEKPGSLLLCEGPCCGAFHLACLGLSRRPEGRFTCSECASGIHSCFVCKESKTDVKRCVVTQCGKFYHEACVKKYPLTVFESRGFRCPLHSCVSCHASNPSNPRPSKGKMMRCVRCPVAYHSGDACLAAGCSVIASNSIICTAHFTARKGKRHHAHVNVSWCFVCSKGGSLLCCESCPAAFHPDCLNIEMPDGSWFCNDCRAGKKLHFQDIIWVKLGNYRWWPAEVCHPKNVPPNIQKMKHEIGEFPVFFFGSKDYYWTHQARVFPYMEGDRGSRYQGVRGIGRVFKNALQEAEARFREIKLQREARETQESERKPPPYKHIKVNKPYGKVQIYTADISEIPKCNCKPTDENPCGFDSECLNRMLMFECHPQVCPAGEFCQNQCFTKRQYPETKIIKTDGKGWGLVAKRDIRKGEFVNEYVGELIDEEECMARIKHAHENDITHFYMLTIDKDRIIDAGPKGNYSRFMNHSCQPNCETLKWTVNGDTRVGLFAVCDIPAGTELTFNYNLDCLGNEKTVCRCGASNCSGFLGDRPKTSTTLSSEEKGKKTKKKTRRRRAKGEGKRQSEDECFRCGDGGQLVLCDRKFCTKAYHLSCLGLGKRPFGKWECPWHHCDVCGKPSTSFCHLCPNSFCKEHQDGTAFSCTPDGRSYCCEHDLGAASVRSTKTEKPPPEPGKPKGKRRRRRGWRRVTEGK
The format is biochemical.

Structures are written as SMILES. Activity calls are given as the source filed them. Cut-off read from the data, not from the text of the source, for most assays here: actives have a measured IC50 and inactives only a lower limit. Bounds are passed on as bounds.

`CCCCCCCCCCOC(=O)Cn1c(COc2ccccc2)[n+](C)c2ccccc21`: the IC50 in test [1] is > 20 µM (inactive); in test [2], 12.6 µM (active). With `CCOC(=O)c1c(-c2ccc(-c3ccccc3)cc2)csc1NC(=O)CNCCN(C)C`, the values for the IC50 in test [1] and in test [2] were 11.4 µM (active) and 32.5 µM (active), respectively. In the case of `COc1cc(-c2nnc(SCc3cc(=O)oc4cc(O)c(O)cc34)o2)cc(OC)c1OC`, the AC50 in test [3] was 0.665 µM (active).

For the compound `N#Cc1c(NC(=O)c2ccc(Br)o2)n(-c2ccccc2)c2nc3ccccc3nc12`, the IC50 in test [2] was 7.22 µM (active). Also, the AC50 in test [3] was 11.6 µM (active).

Consider `CC(C)[n+]1ccn(C2=C([N-]S(=O)(=O)c3ccccc3)C(=O)c3ccccc3C2=O)c1`, for which, in test [2], the IC50 is 7.16 µM (active). The AC50 in test [3] was 5.79 µM (active).
